This test deals with Candida albicans. Description: Antifungal activity against Candida albicans. It counts as functional.

Converted amounts (≈) assume the structure as drawn.

Take `CC(C)(C)c1ccc(CN2CCN(CC(O)(Cn3cncn3)c3ccc(F)cc3F)CC2)cc1` (stereo not given): the MIC80 (usually the lowest concentration that inhibits either 80% of growth or 80% of the strains tested, depending on the study) came out at 0.034 µM (≈ 0.016 µg/mL). The value for `OC(CN1CCN(Cc2ccc(I)cc2)CC1)(Cn1cncn1)c1ccc(F)cc1F` (stereo not given) was 0.116 µM (≈ 0.0625 µg/mL); that for `OC(CN1CCN(c2ccccn2)CC1)(Cn1cncn1)c1ccc(F)cc1F` (stereo not given) was 0.156 µM (≈ 0.0625 µg/mL); that for `Cc1cccc(CN2CCN(CC(O)(Cn3cncn3)c3ccc(F)cc3F)CC2)c1` (stereo not given) was 0.292 µM (≈ 0.125 µg/mL). In the case of `O=[N+]([O-])c1ccccc1CN1CCN(CC(O)(Cn2cncn2)c2ccc(F)cc2F)CC1` (stereo not given) it was 34.9 µM (≈ 16 µg/mL). The value for `N#Cc1ccc(CN2CCN(CC(O)(Cn3cncn3)c3ccc(F)cc3F)CC2)cc1` (stereo not given) was 0.285 µM (≈ 0.125 µg/mL). Regarding `CCc1ccc(CN2CCN(CC(O)(Cn3cncn3)c3ccc(F)cc3F)CC2)cc1` (stereo not given), the MIC80 amounted to 0.566 µM (≈ 0.25 µg/mL). Molecule `COc1ccccc1C(=O)N1CCN(CC(O)(Cn2cncn2)c2ccc(F)cc2F)CC1` (stereo not given) had an MIC80 of 17.5 µM (≈ 8 µg/mL). For the molecule `Cc1cccc(C(=O)N2CCN(CC(O)(Cn3cncn3)c3ccc(F)cc3F)CC2)c1` (stereo not given), the MIC80 is 2.27 µM (≈ 1 µg/mL). The value for `O=C(c1ccc(Cl)cc1)N1CCN(CC(O)(Cn2cncn2)c2ccc(F)cc2F)CC1` (stereo not given) was 0.541 µM (≈ 0.25 µg/mL).

Turning to `O=[N+]([O-])c1ccc(Cl)c(CN2CCN(CC(O)(Cn3cncn3)c3ccc(F)cc3F)CC2)c1` (stereo not given), the MIC80 amounted to 0.254 µM (≈ 0.125 µg/mL).

`OC(CN1CCN(c2cc(C(F)(F)F)cc(Cl)n2)CC1)(Cn1cncn1)c1ccc(F)cc1F` (stereo not given): the MIC80 came out at 0.124 µM (≈ 0.0625 µg/mL). The value for `OC(CN1CCN(Cc2ccc(Br)cc2F)CC1)(Cn1cncn1)c1ccc(F)cc1F` (stereo not given) was 0.0612 µM (≈ 0.0312 µg/mL); that for `OC(CN1CCN(Cc2ccc(Cl)cc2)CC1)(Cn1cncn1)c1ccc(F)cc1F` (stereo not given) was 0.0357 µM (≈ 0.016 µg/mL).

`OC(CN1CCN(Cc2ccccc2F)CC1)(Cn1cncn1)c1ccc(F)cc1F` (stereo not given) showed an MIC80 of 4.64 µM (≈ 2 µg/mL).

The molecule `Cc1ccc(CN2CCN(CC(O)(Cn3cncn3)c3ccc(F)cc3F)CC2)cc1` (stereo not given) returned an MIC80 of 2.34 µM (≈ 1 µg/mL). The value for `OC(CN1CCN(Cc2ccc(Br)cc2)CC1)(Cn1cncn1)c1ccc(F)cc1F` (stereo not given) was 0.254 µM (≈ 0.125 µg/mL); that for `Nc1ccc(C(=O)N2CCN(CC(O)(Cn3cncn3)c3ccc(F)cc3F)CC2)cc1` (stereo not given) was 36.2 µM (≈ 16 µg/mL); that for `O=C(c1ccccc1)N1CCN(CC(O)(Cn2cncn2)c2ccc(F)cc2F)CC1` (stereo not given) was 2.34 µM (≈ 1 µg/mL). Consider `OC(CN1CCN(Cc2cc(F)ccc2Br)CC1)(Cn1cncn1)c1ccc(F)cc1F` (stereo not given), for which the MIC80 was determined as 0.122 µM (≈ 0.0625 µg/mL). As for `Cc1ccccc1C(=O)N1CCN(CC(O)(Cn2cncn2)c2ccc(F)cc2F)CC1` (stereo not given), the MIC80 came to 36.2 µM (≈ 16 µg/mL). The value for `O=C(c1ccccc1Cl)N1CCN(CC(O)(Cn2cncn2)c2ccc(F)cc2F)CC1` (stereo not given) was 2.16 µM (≈ 1 µg/mL). In the case of `OC(CN1CCN(Cc2cccc(Cl)c2)CC1)(Cn1cncn1)c1ccc(F)cc1F` (stereo not given) it was 0.14 µM (≈ 0.0625 µg/mL); in that of `OC(CN1CCN(Cc2ccc(F)cc2)CC1)(Cn1cncn1)c1ccc(F)cc1F` (stereo not given), 0.579 µM (≈ 0.25 µg/mL); in that of `O=C(c1ccc([N+](=O)[O-])cc1)N1CCN(CC(O)(Cn2cncn2)c2ccc(F)cc2F)CC1` (stereo not given), 1.06 µM (≈ 0.5 µg/mL). The molecule `CC(=O)c1ccc(N2CCN(CC(O)(Cn3cncn3)c3ccc(F)cc3F)CC2)cc1` (stereo not given) yielded an MIC80 of 0.0339 µM (≈ 0.015 µg/mL). The value for `OC(CN1CCN(Cc2ccc(Cl)cc2Cl)CC1)(Cn1cncn1)c1ccc(F)cc1F` (stereo not given) was 0.0331 µM (≈ 0.016 µg/mL); that for `OC(CN1CCN(Cc2ccccc2Cl)CC1)(Cn1cncn1)c1ccc(F)cc1F` (stereo not given) was 0.558 µM (≈ 0.25 µg/mL). In the case of `O=C(c1cccc([N+](=O)[O-])c1)N1CCN(CC(O)(Cn2cncn2)c2ccc(F)cc2F)CC1` (stereo not given) it was 16.9 µM (≈ 8 µg/mL); in that of `O=C(c1ccc(F)cc1)N1CCN(CC(O)(Cn2cncn2)c2ccc(F)cc2F)CC1` (stereo not given), 2.23 µM (≈ 0.994 µg/mL). In the case of `CC(C)(C)c1ccc(C(=O)N2CCN(CC(O)(Cn3cncn3)c3ccc(F)cc3F)CC2)cc1` (stereo not given) it was 1.03 µM (≈ 0.5 µg/mL); in that of `Cc1ccc(C(=O)N2CCN(CC(O)(Cn3cncn3)c3ccc(F)cc3F)CC2)cc1` (stereo not given), 18.1 µM (≈ 8 µg/mL). On to `OC(CN1CCN(Cc2ccc(F)cc2Br)CC1)(Cn1cncn1)c1ccc(F)cc1F` (stereo not given), for which the MIC80 was 0.122 µM (≈ 0.0625 µg/mL). In the case of `OC(CN1CCN(Cc2cccc(I)c2)CC1)(Cn1cncn1)c1ccc(F)cc1F` (stereo not given) it was 0.232 µM (≈ 0.125 µg/mL).

In turn, `COc1ccc(C(=O)N2CCN(CC(O)(Cn3cncn3)c3ccc(F)cc3F)CC2)cc1` (stereo not given) had an MIC80 of 0.273 µM (≈ 0.125 µg/mL).
